# According to patent US11000535B2, “Anticancer composition and use thereof” (KAOHSIUNG MEDICAL UNIVERSITY, priority 2015, dated 2021):
# Assays:
# [1] = system: Huh7 cells; assay: Antitumor effect of PGG, Huh7 xenograft; type: in vivo, nude mice; conditions: 300 mpk, once a day for 10 days
# Method: To test the antitumor effect of PGG in vivo, Huh7 cells were implanted subcutaneously into nude mice.
# By the same token, mice were subcutaneously injected with Huh7 cells (2×10^6) in order to test the anti-tumor effect of PGG in vivo.
# Tumor growth was monitored (every day or three times per week) by using Vernier caliper measurement of the length (L) and width (W) of the tumor.
# Tumor volume (TV) was calculated by using the formula volume=(L×W^2)/2.
# [2] = system: Huh7 cells; assay: Colony formation assay; type: cell-based, human; conditions: 7 days
# Method: For the colony assay, Huh7 cells were seeded. […] Numbers of surviving colonies were analyzed.
# [3] = system: Huh7 cells (shLacZ, shGNMT, shMyc, c-Myc overexpression); assay: PGG cytotoxicity in Huh7 cells with GNMT or c-Myc knock-out or c-Myc overexpression; type: cell-based, human
# Method: As to the mechanism for how to suppress the growth of liver cancer cells by PGG, it was deduced that by virtue of induced GNMT expression by PGG it could interfere liver cancer cells. And it can be expected to have the claimed therapeutic effect of PGG by knocking out GNMT. With transformed Huh7 cells, shRNAs which have stable expressions of GNMT are evaluated.
# Please refer to FIG. 40, which illustrates PGG affects the viability in different cell lines, wherein the numeral 1 denotes shLacZ, the numeral 2 denotes shGNMT-1, and the numeral 3 denotes shGNMT-2.
# Please refer to FIG. 41, which illustrates the viability in Huh7 cells, wherein the numeral 1 denotes vehicle, the numeral 2 denotes c-Myc, the numeral 3 denotes solvent, and the numeral 4 denotes PGG.
# Please refer to FIG. 44, which illustrates the viability in Huh7 cells, wherein the numeral 1 denotes shLacZ, and the numeral 2 denotes shMyc.
# Stablized cells comprises Huh7-GFP, Huh7-GNMT, Huh7-shGNMT, Huh7-shLacZ and Huh7-shMyc, which are established via the lentivirus system and cultured in Dulbecco's Modified Eagle's Medium (DMEM) (Gibco BRL, Grand Island, N.Y., USA) with 1 μg/ml puromycin.
# [4] = system: HepG2 cells; assay: alamarBlue cell viability, HepG2; type: cell-based, human
# Description: Next, we analyzed the effect of PGG on cell proliferation in different liver cancer cell lines, including Huh7, Hep3B (ATCC-No 8064), HepG2 (ATCC HB-8065), SK-HEP-1 (ATCC HTB-52), Mahlavu and HepG2 (ATCC HB-8065).
# Please refer to FIG. 18, which illustrates the effect of PGG on cell proliferation in different liver cancer cell lines, wherein the numeral 1 denotes Huh7 cells, the numeral 2 denotes Hep3B cells, the numeral 3 denotes SK-HEP-1 cells, the numeral 4 denotes Mahlavu cells, and the numeral 5 denotes HepG2 cells. And cell viability was determined by the alamarBlue® viability assay. IC50 values of PGG in each cell line are shown as follows: Huh7 cells 0.03 mg/mL, Hep3B cells 0.07 mg/mL, SK-HEP-1 cells, Mahlavu cells and HepG2 0.10 mg/mL dose-dependent.
# Human liver cancer cell lines Huh7, Hep G2, Hep 3B, SK-HEP-1, Mahlavu and embryonic kidney cell line HEK-293T all were cultured in Dulbecco's Modified Eagle's Medium (DMEM) (Gibco BRL, Grand Island, N.Y., USA) with 10% heat-inactivated fetal bovine serum (HyClone, Logan, Utah, USA), penicillin (100 U/mL), streptomycin ([…]), nonessential amino acids (0.1 mM/L) and L-glutamine (2 mM/L) in a humidified incubator with 5% CO2.
# [5] = system: c-Myc protein; assay: c-Myc protein expression by immunoblotting, HL60; type: cell-based, human; conditions: HL60 cells, 0.1 mg/mL
# Method: Human prostate cancer cell line PC-3 and human promyelocytic leukemia cell line HL-60 were cultured in Gibco BRL company RPMI (Roswell Park Memorial Institute) 1640's medium.
# (§1) Cells or xenograft tumors were harvested with RIPA lysis buffer (50 mM Tris (pH 7.5), 150 mM NaCl, 1% Triton X-100, 0.1% sodium dodecyl sulfate (SDS), 0.5% sodium deoxycholate, supplemented with protease and phosphatase inhibitors (1 mM Phenylmethanesulfonyl Fluoride (PMSF), […], […] Tosyllysine Chloromethyl Ketone (TLCK), […] Tosyl phenylalanyl chloromethyl ketone (TPCK), […] aprotinin, 1 mM sodium fluoride (NaF), 5 mM sodium pyrophosphate (NaPPi) and 10 mM sodium orthovanadate (Na3VO4).
# (§2) Protein lysates were quantified and separated on SDS-PAGE gel, and immunoblotting was carried out.
# [6] = system: caspase 3/7; assay: Caspase 3/7 activity assay; type: cell-based, human; conditions: Huh7 cells, 12 hours
# Method: Please refer to FIG. 24, which illustrates PGG induced caspase 3/7 activity in Huh7 cells.
# Huh7 cells were plated in 96-well plate and treated with solvent or PGG for 12 h. To measure caspase-3 and caspase-7 activation, the Apo-ONE® Homogeneous Caspase-3/7 assay was performed according to the Promega Technical Bulletin-Apo-ONE® Homogeneous Caspase-3/7 assay.
# [7] = system: c-Myc protein; assay: c-Myc protein expression by immunoblotting, HepG2; type: cell-based, human; conditions: HepG2 cells
# Method: Please refer to FIG. 32A, FIG. 32B, FIG. 33A and FIG. 33B.
# as §1, §2
compound,measurement,setting,value
"O=C(OC[C@H]1O[C@@H](OC(=O)c2cc(O)c(O)c(O)c2)[C@H](OC(=O)c2cc(O)c(O)c(O)c2)[C@@H](OC(=O)c2cc(O)c(O)c(O)c2)[C@@H]1OC(=O)c1cc(O)c(O)c(O)c1)c1cc(O)c(O)c(O)c1 [PGG, 1,2,3,4,6-penta-O-galloyl-β-D-glucopyranoside]",tumor growth (tumor volume) vs control group,[1],significant inhibition in tumor growth
same,inhibition of colony formation,[2]; 0.05 mg/ml or higher,95%
same,"formation of Huh7 cell populations (colonies), dose dependence",[2],dose-dependent manner
same,cytotoxicity with ectopically overexpressed c-Myc,"[3]; 0.1 mg/mL, FIG. 41",there is still cytotoxicity
same,"cytotoxicity when GNMT is knocked out (shGNMT-1, shGNMT-2 vs shLacZ)",[3]; FIG. 40,no obvious improvement for the cytotoxicity caused by PGG
same,cell viability of Huh7-shMyc cells compared with Huh7-shLacZ cells,[3]; FIG. 44,only slightly decrease cell viability
same,IC50,[4],100 µg/mL
same,c-Myc protein expression,[5],inhibits c-Myc protein expression
same,increase in caspase 3/7 activity,[6],five-fold
same,"expression of c-Myc protein, dose dependence",[7],suppresses the expression of c-Myc protein in HepG2 cells in a dose-dependent manner
same,"expression of c-Myc protein, time dependence",[7],suppresses the expression of c-Myc protein in HepG2 cells in a time-dependent manner
